Measurements published in patent US20240252677A1, “ONE-COMPONENT DELIVERY SYSTEM FOR NUCLEIC ACIDS” (The Trustees of the University of Pennsylvania, priority 2021, published 2024).

Columns and labels:
HEK293T cells = test: In vitro Luc-mRNA transfection, luciferase luminescence expression in HEK293T cells; type: cell-based, human; parameters: unit not given here; conditions: Table 16; HEK 293T cells, 125 ng/well, n=3
How it was run: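 HEK293T cells were transfected with nucleoside-modified firefly luciferase mRNA at 125 ng/well delivered in the test particles. TransIT and MC3-based LNPs at equal mRNA dose served as comparators. After 24 h (18-20 h in some runs) at 37° C the cells were lysed, and luciferase luminescence was read on a luminometer, in triplicate.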

[1] = Stability of DNPs by DLS after storage at 5° C.; type: physicochemical; parameters: key to Original size distribution type (DLS curve) / Size distribution type (DLS curve): U: DLS curve showed unimodal size distribution; B: DLS curve showed bimodal size distribution; M: DLS curve showed multimodal size distribution; conditions: for pH Sample: DNPs: IAJD 4.0 mg/mL + Luc-mRNA 0.1 mg/mL, injection in acetate buffer pH 4.00; for PDI / Size (d, nm) / Original size distribution type (DLS curve): IAJD 4.0 mg/mL + Luc-mRNA 0.1 mg/mL; for PDI / Size (d, nm): acetate buffer; for Original size distribution type (DLS curve): before storage, acetate buffer pH 4.00
How it was run: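 DNPs in acetate buffer sized by DLS after storage at 5 °C. Stability ranked Excellent, Good or Not stable according to retention, shrinkage or growth of original size and narrowing or broadening of size distribution.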

lung = test: In vivo mRNA delivery, IVIS imaging of organs: lung; parameters: species or system mice; key to Organs with luminescence: lung: strong: Strong meant the luminescence intensity in that organ was relatively high, compared to other organs; weak: Weak meant the luminescence intensity in that organ was relatively low, compared to other organs; conditions: mice; for Organs with luminescence: lung: Table 17, IVIS, 4-6 h after injection, intensity relative to other organs
[2] = pKa measurements of individual IAJD molecules by titration; type: physicochemical; conditions: ethanol saturated with NaCl, titrated with 0.1 M aqueous HCl; individual IAJD molecules, titration
How it was run: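 pKa derived by half-equivalence-point analysis of a pH-meter titration curve: 0.1 M HCl added in 7.5 μL increments to a 1.5 mg/mL solution of each molecule in ethanol saturated with NaCl.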

spleen = test: In vivo mRNA delivery, IVIS imaging of organs: spleen; parameters: species or system mice; key to Organs with luminescence: spleen: strong: Strong meant the luminescence intensity in that organ was relatively high, compared to other organs; weak: Weak meant the luminescence intensity in that organ was relatively low, compared to other organs; conditions: Table 17; mice, IVIS, 4-6 h after injection; intensity relative to other organs

Compound | Luminescence (HEK293T cells) | pH Sample [1] | Original size distribution type (DLS curve) [1] | Organs with luminescence: lung (lung) | pKa [2] | Organs with luminescence: spleen (spleen) | Size distribution type (DLS curve) ([1]; after 62 days at 5° C.) | PDI ([1]; after 62 days at 5° C.) | Size (d, nm) ([1]; after 62 days at 5° C.) [nm] | also measured
CCCCCCCCCCCOc1cc(COC(=O)c2cc(OCCOCCOCCCC(=O)CCCN3CCCCC3)c(OCCOCCOCCOCc3ccccc3)c(OCCOCCOCCOC(=O)CCCN3CCCCC3)c2)cc(OCCCCCCCCCCC)c1 [IAJD 111] | 41 | 4.84 | (U) | Lung (strong), | 7.58 | spleen (weak) | – | – | – | Size distribution type (DLS curve) ([1]; after 75 days at 5° C.): (U); PDI ([1]; after 75 days at 5° C.): 0.227; Size (d, nm) ([1]; after 75 days at 5° C.): 96 nm; activity in lung (in words) (lung; Luc-mRNA DNPs): very high activity to lung
CCCCCCCCCCCCCCCOc1cc(COC(=O)CCCN2CCN(C)CC2)cc(OCCCCCCCCCCCCC)c1 [IAJD 145, 3-(pentadecyloxy)-5-(tridecyloxy)benzyl 4-(4-methylpiperazin-1-yl)butanoate] | 296 | 4.51 | (U) | Lung (strong), | 6.28 | spleen (strong) | – | – | – | Size distribution type (DLS curve) ([1]; after 27 days at 5° C.): (U); PDI ([1]; after 27 days at 5° C.): 0.330; Size (d, nm) ([1]; after 27 days at 5° C.): 189 nm
CCCCCCCCCCCCCCCCCOc1cc(COC(=O)CCCN2CCN(CCO)CC2)cc(OCCCCCCCCCCC)c1 [IAJD 127, 3-(Heptadecyloxy)-5-(undecyloxy)benzyl 4-(4-(2-hydroxyethyl)piperazin-1-yl)butanoate] | 147,731 | 4.46 | (U) | Lung (weak), | 6.52 | spleen (strong) | (B) | 0.248 | 263 | –
CCCCCCCCCCCCCCCCCCOc1cc(COC(=O)CCCN2CCN(C)CC2)cc(OCCCCCCCCCCCCCCC)c1 [IAJD 153, 3-(Octadecyloxy)-5-(pentadecyloxy)benzyl 4-(4-methylpiperazin-1-yl)butanoate] | 8,860 | 4.52 | (U) | Lung (weak), | 6.42 | spleen (strong) | – | – | – | Size distribution type (DLS curve) ([1]; after 35 days at 5° C.): (U); PDI ([1]; after 35 days at 5° C.): 0.232; Size (d, nm) ([1]; after 35 days at 5° C.): 222 nm
CCCCCCCCCCCCCCCOc1cc(COC(=O)CCCN2CCN(CCO)CC2)cc(OCCCCCCCCCCCCCC)c1 [IAJD 148, 3-(Pentadecyloxy)-5-(tetradecyloxy)benzyl 4-(4-(2-hydroxyethyl)piperazin-1-yl)butanoate] | 139,420 | 4.46 | (U) | Lung (weak), | 6.65 | spleen (strong) | – | – | – | Size distribution type (DLS curve) ([1]; after 19 days at 5° C.): (B); PDI ([1]; after 19 days at 5° C.): 0.374; Size (d, nm) ([1]; after 19 days at 5° C.): 405 nm
CCCCCCCCCCCCCOc1cc(COC(=O)CCCN2CCN(C)CC2)cc(OCCCCCCCCCCC)c1 [IAJD 116, 3-(Tridecyloxy)-5-(undecyloxy)benzyl 4-(4-methylpiperazin-1-yl)butanoate] | 192,213 | 4.47 | (U) | Lung (weak), | 6.51 | spleen (strong) | (U) | 0.272 | 168 | –
